The supplement of paper PMC10307832

Experiments:
Assay in all cases: relative viability (nuclei count vs DMSO), 5 days (fraction); higher = more cells survive
[1] = compound: CC(C)(C)c1nc(-c2cccc(NS(=O)(=O)c3c(F)cccc3F)c2F)c(-c2ccnc(N)n2)s1 [Dabrafenib] + O=C(CCCCCCC(=O)Nc1ccccc1)NO [Vorinostat] (partner 1 µM)
In short: (§1)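 Relative viability divides the nuclei count in treated wells by that in vehicle wells. Lung cancer cell lines were seeded in 1536-well plates, dosed by pin tool the next day, and fixed and stained after 5 days in one step with final 0.05% Triton X-100, 1% formaldehyde and 1 ug/ml Hoechst. Dosing was a single drug or a fixed anchor-drug dose plus five library-drug doses (not always all listed) in √10 steps, and values are medians of duplicate plates imaged at 4×.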

[2] = compound: NC(=O)c1ccc(N(C(N)=O)c2c(F)cccc2F)nc1-c1ccc(F)cc1F [VX-702] + O=C(CCCCCCC(=O)Nc1ccccc1)NO [Vorinostat] (partner 1 µM)
In short: as §1

[3] = compound: CC(C)(C)c1nc(-c2cccc(NS(=O)(=O)c3c(F)cccc3F)c2F)c(-c2ccnc(N)n2)s1 [Dabrafenib] + N=C(N)NC(=N)NCCc1ccccc1 [Phenformin] (partner 250 µM)
In short: as §1

[4] = compound: NC(=O)c1ccc(N(C(N)=O)c2c(F)cccc2F)nc1-c1ccc(F)cc1F [VX-702] + CS(=O)(=O)CCNCc1ccc(-c2ccc3ncnc(Nc4ccc(OCc5cccc(F)c5)c(Cl)c4)c3c2)o1 [Lapatinib] (partner 2 µM)
In short: as §1

Row | Cell Line | relative viability ([1]; first compound 0.009487 µM) | relative viability ([1]; first compound 0.03 µM) | relative viability ([1]; first compound 0.09487 µM) | relative viability ([1]; first compound 0.3 µM) | relative viability ([2]; first compound 0.02 µM) | relative viability ([2]; first compound 0.2 µM) | relative viability ([2]; first compound 0.6325 µM) | relative viability ([2]; first compound 2 µM) | relative viability ([3]; first compound 0.009487 µM) | relative viability ([3]; first compound 0.03 µM) | relative viability ([3]; first compound 0.09487 µM) | relative viability ([3]; first compound 0.3 µM) | relative viability ([4]; first compound 0.02 µM) | relative viability ([4]; first compound 0.2 µM) | relative viability ([4]; first compound 0.6325 µM) | relative viability ([4]; first compound 2 µM) | relative viability ([1]; first compound 0.003 µM) | relative viability ([3]; first compound 0.003 µM)
1 | PC-14 | 0.829 | 0.737 | 0.757 | 0.73 | 0.806 | 0.774 | 0.74 | 0.531 | 0.493 | 0.623 | 0.583 | 0.83 | 0.363 | 0.245 | 0.311 | 0.29 |  | 
2 | 201T | 1.07 | 0.813 | 0.947 | 0.98 | 0.966 | 0.956 | 1.09 | 1 | 0.428 | 0.372 | 0.41 | 0.465 | 1.06 | 0.991 | 1.12 | 1.09 | 0.978 | 0.423
3 | COR-L 105 | 0.975 | 0.806 | 0.888 | 0.911 | 0.734 | 0.805 | 0.795 | 0.855 | 0.507 | 0.417 | 0.492 | 0.547 | 0.332 | 0.336 | 0.338 | 0.326 | 0.779 | 0.497
4 | A-427 | 0.962 | 0.787 | 0.762 | 0.866 | 0.897 | 0.869 | 0.895 | 1.01 | 0.292 | 0.273 | 0.276 | 0.378 | 1.17 | 0.968 | 1.07 | 1.16 | 0.793 | 
5 | NCI-H1734 | 0.85 | 0.627 | 0.708 | 0.759 | 0.812 | 0.759 | 0.781 | 0.732 | 0.302 | 0.388 | 0.389 | 0.362 | 0.541 | 0.961 | 1.05 | 0.917 |  | 
6 | NCI-H1944 | 0.529 | 0.508 | 0.659 | 0.483 | 0.625 | 0.557 | 0.558 | 0.414 | 0.199 | 0.188 | 0.222 | 0.208 | 0.903 | 0.774 | 0.878 | 0.789 | 0.445 | 0.182
7 | LOU-NH91 | 0.941 | 0.964 | 0.941 | 1.07 | 0.957 | 0.845 | 0.895 | 0.857 | 0.808 | 0.645 | 0.707 | 0.92 | 0.789 | 0.645 | 0.639 | 0.675 |  | 0.417
8 | NCI-H2009 | 0.64 | 0.673 | 0.414 | 0.574 | 0.791 | 0.847 | 0.907 | 1.03 | 0.426 | 0.341 | 0.312 | 0.268 | 1.14 | 0.931 | 1.01 | 1.08 | 0.651 | 0.412
9 | HCC-15 | 0.844 | 0.825 | 0.768 | 0.896 | 0.813 | 0.803 | 0.854 | 0.858 | 0.461 | 0.528 | 0.401 | 0.382 | 0.837 | 0.838 | 0.857 | 0.928 | 0.862 | 0.461
10 | NCI-H727 | 1.27 |  | 0.995 | 1.19 | 1.25 | 1.28 | 1.18 | 1.39 | 0.425 | 0.515 |  | 0.595 | 0.88 | 0.671 | 0.818 | 0.911 | 0.538 | 
11 | EPLC-272H | 0.411 | 0.409 | 0.436 | 0.498 | 0.401 | 0.571 | 0.535 | 0.438 | 0.331 | 0.406 | 0.267 | 0.332 | 1.09 | 0.751 | 1.1 | 1.59 | 0.401 | 0.211
12 | SW 1573 | 0.719 | 0.672 | 0.552 | 0.673 | 0.937 | 0.793 | 0.707 | 0.8 | 0.445 | 0.324 | 0.465 | 0.541 | 1.05 | 1.13 | 1.05 | 0.919 | 0.73 | 0.371
13 | NCI-H1793 | 1.12 |  | 0.877 | 0.873 | 0.669 |  | 0.757 | 0.591 | 0.398 |  |  | 0.39 | 0.752 | 0.59 | 0.817 | 0.987 |  | 
14 | LXF-289 | 0.779 | 0.759 | 0.674 | 0.789 | 0.816 | 0.765 | 0.811 | 0.786 | 0.511 | 0.487 | 0.493 | 0.542 | 0.965 | 0.876 | 0.912 | 0.922 | 0.73 | 0.364
15 | NCI-H2023 | 0.717 | 0.733 | 0.559 | 0.6 | 0.615 | 0.736 | 0.679 | 0.938 | 0.406 | 0.419 | 0.423 | 0.443 | 0.729 | 0.504 | 0.712 | 0.977 | 0.716 | 0.4
16 | HARA | 0.644 |  | 0.481 | 0.567 | 0.527 | 0.51 | 0.542 | 0.449 | 0.46 |  | 0.364 | 0.511 | 0.653 | 0.69 | 0.91 | 0.825 | 0.553 | 0.448
17 | SK-LU-1 | 0.716 | 0.692 | 0.605 | 0.651 | 0.9 | 0.716 | 0.767 | 1.04 | 0.571 | 0.326 | 0.47 | 0.373 | 1.09 | 0.885 | 0.887 | 1.29 |  | 
18 | LCLC-97TM1 | 0.928 | 0.695 | 0.283 | 0.596 | 0.732 | 0.787 | 0.782 | 0.878 | 0.398 | 0.415 | 0.328 | 0.259 | 0.908 | 0.786 | 1.3 | 0.947 |  | 0.339
